Measurements as given in patent US8563473B2, “Aqueous herbicidal concentrates of auxinic carboxylic acids with reduced eye irritancy” (Dow AgroSciences, LLC., priority 2010, dated 2013).

Columns and labels:
susceptible plants = conditions: concentrate diluted in water, applied postemergently; disclosed in WO 2008/106107 A1; cited from earlier work
[1] = Cold temperature stability / storage of aqueous concentrates; assay type: physicochemical; conditions: […] salt solution ([…] acid equivalent) stored at −10° C. for 14 days

Substance: choline salt of 2,4-D [2,4-D choline]
- Weed control (susceptible plants): good weed control

Substance: triclopyr choline salt
- Crystallization on storage [1]: did not show any crystallization
